Results taken from US8420776B2, “Ube2G2 binding domain in the ubiquitin ligase gp78 and methods of use thereof” (The United States of America, as Represented by the …, priority 2004, dated 2013).
Entries after “also recorded” stand apart in the source; their conditions may differ. Ends that are not written are not given here. Peptide text beside a SMILES is read from it. * marks the point of attachment. Cbz = O=C(OCc1ccccc1)*

What was measured:
Ube2G2/MmUbc7 = target: T1, Ube2G2/MmUbc7 (Mus musculus, UniProt P60605); assay: GST pull-down binding of in vitro translated 35S-Met Ube2G2/MmUbc7; set-up: species or system human; conditions: GST fusion pull-down; 35S-Met labeled E2
T1 construct: made in house; host or cells: coupled in vitro transcription/translation in rabbit reticulocyte lysate or wheat germ
T1 sequence (P60605 1-165): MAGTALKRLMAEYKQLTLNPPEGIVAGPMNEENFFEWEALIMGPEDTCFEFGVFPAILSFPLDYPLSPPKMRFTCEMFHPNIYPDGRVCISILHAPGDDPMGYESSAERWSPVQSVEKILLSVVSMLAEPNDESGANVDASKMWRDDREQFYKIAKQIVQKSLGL
Experimental: GST fusions were purified from E. Coli. Binding was carried out using equi-molar amount of fusion proteins measured by Commassie blue staining. Generally, 20 picomoles/sample were used. In vitro translated E2 was generated by coupled transcription and translation using 35S methionine in either wheat germ or rabbit reticulocyte lysate. […] Beads were washed with binding buffer and resolved by SDS-PAGE under reducing conditions. Analysis was by Storm PhosphoImager (Applied Biosystems, Foster City, Calif.). Direct binding assays used wild type His6-MmUbc7 (His6-Ube2G2) and Glutathione-sepharose bound GST fusions. Beadbound GST protein was incubated with 100 ng purified His6-MmUbc7 in binding buffer and washed and eluted as above. After transfer to Hybond-P (Amersham Biosciences) binding was assessed with anti-His6 followed by Enhanced Chemiluminescence ECL; Pierce).
The E2 enzymes were in vitro translated using wheat germ.
GST fusion proteins encoding the regions indicated in FIGS. 3A-3C were evaluated for the ability to bind to Ube2G2/MmUbc7 that had been in vitro transcribed and translated in rabbit reticulocyte lysate. gp78C represents the entire C-terminal cytoplasmic domain of gp78 (amino acid residues 309-643 of SEQ ID NO:2).

Myc-Ube2G2 = target: T2, Myc-Ube2G2 (Mus musculus, UniProt P60605); assay: Co-immunoprecipitation with co-expressed Myc-Ube2G2 in cells; assay type: cell-based; conditions: anti-Myc IP, anti-GFP IB
T2 construct: expressed in transfected cells; host or cells: HEK 293T
T2 sequence (P60605 1-165): T1 sequence (P60605 1-165)
Experimental: (§1) Transfections of HT1080, NIH 3T3 and HEK 293T cells were carried out ˜24 hr after plating using Polyfect (Qiagen, Valencia, Calif.) and cells harvested after ˜48 hr. J558 cells were transfected by electroporation using Bio-rad GENE pulser II at settings of 250 v, 950uF. Vector without insert was used to equalize total plasmid. In most experiments 0.15 μg of pEGFP-C1 served as an internal control. For experiments not involving immunoprecipitation, 6×10^5 cells were plated in 6 well plates and cell lysis was with Mammalian Protein Extraction Reagent (Pierce). For immunoprecipitation, 2.4×10^6 cells were seeded in 100 mm dishes and cells were lysed in RIPA buffer (1×PBS, 1% Nonidet P40. 0.5% sodium deoxycholate, 0.1% SDS). Lysis buffers were supplemented with Protease Inhibitor Cocktail (Sigma) and 10 mM iodoacetamide. Supernatants were analyzed after a 10,000×g centrifugation using standard techniques for immunoprecipitation, SDS-PAGE, immunoblotting and ECL. Treatment of cells with MG132 (Sigma) was at 50 μM for eight hr. Cycloheximnide was used at 50 μg/ml. All cells were collected at the end of the six hr chase.
FIG. 5 depicts the results of immunoprecipitation of Ube2G2 (MmUbc7) from HEK 293T cells co-transfected with a plasmid encoding myc-tagged MmUbc7/Ube2G2 together with s plasmid encoding various forms of gp78. […]

ERAD substrate CD3-δ = assay: CD3-δ level in co-transfected cells by immunoblotting; assay type: cell-based; conditions: for effect on CD3-δ level (stabilization): co-transfection with CD3-δ, immunoblot
Experimental: as §1
FIG. 7 depicts the stabilization of CD3-δ protein in cells transfected with the G2BD, but not with the G2BD with amino acids 579-584 (of SEQ ID NO:2) mutated. HEK 293T cells were transfected with the ERAD substrate CD3-δ along with the indicated GFP fusions of gp78. The left and right sides are two separate experiments.
(§2) To test this, GFP fusions of either a minimal E2 binding domain (GFP-574-611) or a more extended region that includes the C-terminus of gp78 (GFP-574-643) were evaluated (FIG. 21A). […] To assess this further, the C-terminal region of gp78 was fused to the eight amino acid Flag tag. […] Mdm2 is a RING finger E3 for both itself and p53 that is neither an ERAD substrate nor known to utilize Ube2G2 as an E2. […] To establish with certainty that the effect observed with expression of the Ube2G2 binding site is a consequence of binding endogenous E2, and not due to other unanticipated effects, cells were co-transfected with increasing amounts of Ube2G2 (FIG. 21C, lanes 3 and 4). […] These findings clearly establish that the isolated E2 binding site has the potential to markedly alter ERAD of CD3-δ. To ensure the effect observed was not peculiar to one substrate, TCR-α was evaluated (FIG. 21D).

ERAD substrate TCR-α = assay: TCR-α level in co-transfected cells; assay type: cell-based; conditions: co-transfection with TCR-α
Experimental: as §1
FIG. 9 depicts the stabilization of endogenous TCRα by the G2BD. TCR-α is a subunit of the T cell antigent receptor and an ERAD substrate. TCR-α was stabilized by the region implicated in Ube2G2 binding.
as §2

Mdm2 = Mdm2 level in co-transfected cells; assay type: cell-based; conditions: cells transfected with CD3-δ and Mdm2
Experimental: as §1
To test this, GFP fusions of either a minimal E2 binding domain (GFP-574-611) or a more extended region that includes the C-terminus of gp78 (GFP-574-643) were evaluated (FIG. 21A). […] To ensure the effect observed was not peculiar to one substrate, TCR-α was evaluated (FIG. 21D).

gp78 = gp78 level in transfected cells by immunoblotting; assay type: cell-based
Experimental: as §1, with “All cells were collected at the end of the six hr chase.” left out
gp78 is degraded in a proteasome-dependent manner, and deletion of the entire cytoplasmic domain results in its stabilization. […] To determine the significance of the RING finger, Cue domain and Ube2G2 binding site on gp78 stability, mutations of each were evaluated within full-length gp78. […]

[1] = target: T3, lysine 48-linked (K48) tetra-ubiquitin (Homo sapiens, UniProt P0CG47); assay: Tetra-ubiquitin binding to GST fusions; conditions: anti-ubiquitin immunoblot
T3 construct: 1 μg K48 tetra-ubiquitin produced as described (Piotrowski et al., 1997); made in house
Experimental: GST fusions were purified from E. Coli. Binding was carried out using equi-molar amount of fusion proteins measured by Commassie blue staining. Generally, 20 picomoles/sample were used. In vitro translated E2 was generated by coupled transcription and translation using 35S methionine in either wheat germ or rabbit reticulocyte lysate. Binding assays using in vitro translated E2 was carried out by incubating GST protein pre-bound to Glutathione-sepharose 4B with […] of ^35S-methionine labeled E2 in binding buffer (25 mM Tris-HCl, pH 7.4; 50 mM NaCl, 5 mM DTT; and 0.5% NP-40) overnight at 4° C. Beads were washed with binding buffer and resolved by SDS-PAGE under reducing conditions. Analysis was by Storm PhosphoImager (Applied Biosystems, Foster City, Calif.). Direct binding assays used wild type His6-MmUbc7 (His6-Ube2G2) and Glutathione-sepharose bound GST fusions. Beadbound GST protein was incubated with 100 ng purified His6-MmUbc7 in binding buffer and washed and eluted as above. After transfer to Hybond-P (Amersham Biosciences) binding was assessed with anti-His6 followed by Enhanced Chemiluminescence ECL; Pierce). Ubiquitin binding studies were performed with binding and washing as above using 1 μg K48 tetra-ubiquitin produced as described (Piotrowski et al., 1997). Detection was by anti-ubiquitin immunoblotting.

574-608: GST fusion of amino acids 574-608 of gp78 (SEQ ID NO:2) (SADERQRMLVQRKDELLQQARKRFLNKSSEDDAAS; listed as Homo sapiens)
binding to in vitro translated Ube2G2/MmUbc7 (Ube2G2/MmUbc7): sufficient for binding to Ube2G2; also recorded: bound in vitro translated Ube2G2 comparably to the complete gp78 C-terminal tail

579-600: GFP fusion of amino acids 579-600 of SEQ ID NO:2 (QRMLVQRKDELLQQARKRFLNK; listed as Homo sapiens)
binding of GFP fusion to co-expressed Myc-Ube2G2 in cells (Myc-Ube2G2): sufficient to bind Ube2G2 in cells

CC(C)C[C@@H](C=O)NC(=O)[C@H](CC(C)C)NC(=O)[C@H](CC(C)C)NC(=O)OCc1ccccc1 [MG132, reference compound] (Cbz-Leu-Leu-Leu-aldehyde)
reversal of G2BD-induced CD3-δ stabilization by co-transfected Ube2G2 (ERAD substrate CD3-δ; cells expressing Flag-tagged gp78 574-643, 2 or 4 μg Ube2G2 plasmid): blocked the effect of transfected Ube2G2
effect on TCR-α level (stabilization) (ERAD substrate TCR-α): prevented degradation of TCR-α
effect on Mdm2 level (stabilization) (Mdm2): led to Mdm2 stabilization
effect of proteasome inhibitor on gp78 level (gp78): stabilized wild type gp78

GFP-574-611E2-m2: GFP fusion of gp78 574-611 with the E2 binding site mutation of residues 579 to 584
effect on CD3-δ level (stabilization) (ERAD substrate CD3-δ): totally prevented this stabilization
effect on CD3-δ level (stabilization) (ERAD substrate CD3-δ; listed as G2BD with amino acids 579-584 (of SEQ ID NO:2) mutated): loss of this effect
effect on TCR-α level (stabilization) (ERAD substrate TCR-α): did not

UBA-Cbl-b: GST fusion of the UBA of the RING finger E3 Cbl-b (NVDAKIAKLMGEGYAFEEVKRALEIAQNNVEVARSILREF; also: GST fusion partner, not in chain) [reference compound]
binding of K48 tetra-ubiquitin [1]: binds
